The values below come from patent US20040091527A1, “Method of increasing the bioavailability and tissue penetration of azithromycin” (Pfizer Inc, priority 2000, published 2004).

Entries after “also recorded” stand apart in the source; their conditions may differ.

The conditions of series [1]: cited from earlier work.
For series [2], the system named is CACO-2 (colon carcinoma) cells. The note with it: cultured CACO-2 cells; cited from earlier work.
Series [3] can be described thus: Effect of nelfinavir on the pharmacokinetics of a single oral dose of azithromycin (crossover study). The note with it: co-administration with nelfinavir vs azithromycin alone.
Experimental: (§1) Healthy volunteers received nelfinavir for 11 days. On Day 9 a single dose of azithromycin was administered. Each subject also received a single control dose of 1200 mg azithromycin either two weeks before the start of a nelfinavir treatment regimen or three weeks after a nelfinavir treatment regimen.
(§2) Nelfinavir was administered as 3 commercial 250 mg tablets, 3 times per day (morning dose at approximately 7 am; afternoon dose at approximately 3 pm; evening dose at approximately 10 pm) with food for 11 days. On day 9, azithromycin (1200 mg) was dosed as 2 600 mg commercial tablets at the same time as the morning dose of nelfinavir. On day 9 the subjects, who were previously fasted for at least 8 hr, consumed a standard breakfast consisting of cereal and/or toast with butter and jelly, and milk. Immediately following the standard breakfast, the subjects consumed 750 mg nelfinavir and 1200 mg azithromycin, with 120 ml water. On the day on which azithromycin alone was dosed, 2 600 mg commercial tablets were dosed with 120 ml water, immediately following the standard breakfast.
(§3) Serum samples were assayed for azithromycin utilizing LC/MS/MS. […] Concentrations below the lower limits of quantification were utilized as 0.00 μg/ml in the calculations.
(§4) Maximum observed azithromycin concentrations (Cmax) were determined by inspection of the data. Tmax was defined as the time of first occurrence of Cmax. […] Area under the serum concentration versus time curves (AUClast) were calculated for the interval of pre-dose to the last time at which concentrations of azithromycin were measurable. Total exposure was estimated as AUC for the interval of pre-dose to infinity. AUC=AUClast+C*last/kei, where C*last is the concentration estimated from the aforementioned regression at the time of the last quantifiable concentration of drug.
(§5) Geometric mean values of Cmax, AUC, Cmax ratios, and AUC ratios were determined. Arithmetic means of other parameters were determined.
For series [4] the following is noted: in vivo; cited from earlier work.
The next series deals with Caco-2 cell monolayers. The series can be described thus: Azithromycin transport across Caco-2 cell monolayers, with and without P-glycoprotein inhibitors. It counts as in vitro ADME. As for the experimental part: Caco-2 cell monolayers were grown on permeable transwell-col filter supports (24.5 mm diameter, 0.45 μm pore size) and used in these studies at day 21-24. 2 mls of 0.4 μM ^14C Azithromycin in Hank's balanced salt solution (HBSS) was added to the donor chamber and 2 mls of HBSS was added to the acceptor chamber. An impermeable marker, ^3H Mannitol, was included in these studies to ensure the monolayers were intact. […] Transport was monitored in the apical to basolateral (absorptive) and basolateral to apical (secretory) direction. The wells were incubated for 1 hour (unstirred) at 37° C. Samples were removed after the incubation period and analyzed by dual label LSC. The transport was calculated as percent flux/hr. [formula]
Transport measurements were made in controls, implemented in like fashion except no test compound was included.

Another series is described as follows: clinical. The settings on record: human, serum, po, 1200 mg.
For series [5] the following is noted: dog, intravenous radiolabeled dose; cited from earlier work.
For series [6] the following is noted: in vivo; cited from earlier work. This is another data set of the same source.
The conditions of series [7]: humans, no p-gp inhibitor; cited from earlier work.

Usually AUC(0-inf) stands for the area under the concentration-time curve extrapolated to infinity. For orientation: Cmax means the maximum level reached in the sampled fluid or tissue.

Experimental for clinical: as §1, §2, §3, §4, §5

As to `CC[C@H]1OC(=O)[C@H](C)[C@@H](O[C@H]2C[C@@](C)(OC)[C@@H](O)[C@H](C)O2)[C@H](C)[C@@H](O[C@@H]2O[C@H](C)C[C@H](N(C)C)[C@H]2O)[C@](C)(O)C[C@@H](C)C(=O)[C@H](C)[C@@H](O)[C@]1(C)O` [erythromycin], the “increase in midazolam AUC” value in [1] (midazolam co-dosed with erythromycin (Zimmerman et al.)) is listed as 380%.
Consider `CC[C@H]1OC(=O)[C@H](C)[C@@H](O[C@H]2C[C@@](C)(OC)[C@@H](O)[C@H](C)O2)[C@H](C)[C@@H](O[C@@H]2O[C@H](C)C[C@H](N(C)C)[C@H]2O)[C@](C)(O)C[C@@H](C)CN(C)[C@H](C)[C@@H](O)[C@]1(C)O` [Azithromycin, 9a-aza-9a-methyl-9deoxo-9a-homoerythromycin A], for which the “basolateral-to-apical azithromycin flux versus apical-to-basolateral flux” value in [2] is reported as “exceeded”. Further, the “increase of mean AUC0-∞ for azithromycin” value in series [3] (p=0.0001) is on record as 112%. The “increase of mean Cmax” value in series [3] (p=0.0003) is given as 137%. Besides, the “interaction with (effect on plasma levels of) HIV protease inhibitors saquinavir, ritonavir, indinavir, nelfinavir” value in [4] was “does not interact”. Also, the “substrate for the P-glycoprotein efflux transporter” value in the series on Caco-2 cell monolayers (Caco-2) is recorded as “is a substrate”. For the same molecule, in the series with Caco-2 cell monolayers (human, Caco-2, 1 h, 0.4 μM), the “% Flux/hr B-A” value is on record as 6.6 % flux/hr and the “% flux/hr A-B” value amounted to 0.1 % flux/hr. In the series “clinical”, the total exposure AUC(0-inf) was determined as 11500 ng·h/mL and the Cmax came out at 889 ng/mL. Further, the “recovered radiolabel eliminated across the intestinal wall” value in series [5] is 40%. Besides, in series [6], the elimination half-life is 69 h. Further, the “effect on midazolam plasma levels” value in [1] (co-dosed with midazolam (Zimmerman et al.; Backman et al.)) was “no effect; also recorded: did not increase”. The oral bioavailability in [7] was 37%.
For `CC[C@H]1OC(=O)[C@H](C)[C@@H](O[C@H]2C[C@@](C)(OC)[C@@H](O)[C@H](C)O2)[C@H](C)[C@@H](O[C@@H]2O[C@H](C)C[C@H](N(C)C)[C@H]2O)[C@](C)(OC)C[C@@H](C)C(=O)[C@H](C)[C@@H](O)[C@]1(C)O` [clarithromycin], the “interaction with (effect on plasma levels of) HIV protease inhibitors saquinavir, ritonavir, indinavir, nelfinavir” value in series [4] is recorded as “exhibit an interaction with all but nelfinavir”.
